“Also recorded” adds a separate entry of the source.
Legend:
cancer cell lines [1] = assay: Live cell PWS of chromatin folding/heterogeneity (D, Σ); format: cell-based; settings: for capacity to reduce chromatin folding (D↓, Σ↓): PWS on live cells; for regulation of chromatin topology / heterogeneity: live cells, LC-PWS, within minutes of treatment where stated; for chromatin heterogeneity Σ: within 30 min, p<0.01; for structural alteration of chromatin folding: five cell line models (A2780, M248, MDA-MB-231, MES-SA, MX2)
Procedure: Test compounds were screened for CPT activity using live cell PWS imaging. Control and 30-60 minute CPT-treated cells were imaged with live cell PWS to determine their effect on nuclear nanoscale heterogeneity (See FIG. 11A for exemplary tested compounds). […]

[2] = tested on: pancreatic ductal carcinoma PDX model; assay: In vivo validation of CPT on patient derived xenographs; settings: single agent treatment
Procedure: The cell lines were treated with standard (IC50) doses of commonly used chemotherapy drugs (5-FU, Paclitaxel, Oxaliplatin, Docetaxel, Gemcitabine, FOLFIRI). […] Experiments were conducted during development of embodiments herein to test CPT in vivo on patient derived xenographs (PDX) of pancreatic ductal carcinoma (FIG. 15i).

HeLa cells [3] = assay: Live cell PWS, mean nuclear Σ (chromatin nano-architecture); format: cell-based
Procedure: (§1) Prior to imaging, media within petri dishes was exchanged with fresh, RPMI-1640 Media (lacking phenol red pH indicator, purchased from Life Technologies) supplemented with 10% FBS (Sigma Aldrich, St. Louis Mo.). For DNA fragmentation experiments, live cell PWS images were acquired at room temperature (22° C.) and in trace CO2 (open air) conditions for cells subsequently stained with Hoechst 33342. During acquisition of time series data (UV and Controls, metabolic perturbation), cells were maintained at physiological conditions for the duration of the experiment. For imaging, a reference scattering spectra was obtained from an open surface of the substrate coverslip immersed in media prior to any cellular imaging to normalize the intensity of light scattered for each wavelength at each pixel. Σ is defined as the spectral standard deviation of our measured reflectance intensity normalized to this reference scattering spectra from the substrate-media interface. […] For Hoechst induced DNA damage experiments, significance was determined using Student's T-test with unpaired, unequal variance on nuclear Δ(Σ) between the conditions indicated in the experiment in both Mathematica v.10 and Microsoft Excel (Microsoft, Redmond, Wash.) with n=146 for Hoechst stained HeLa cells from 11 replicates and n=87 for Hoechst stained CHO cells from 5 replicates. […]

CHO cells [4] = assay: Mitochondrial membrane potential by TMRE flow cytometry; format: cell-based, Chinese Ovarian Hamster; settings: 10 μM CCCP
Procedure: (§2) HeLa and CHO cells were grown and prepared for live cell imaging as previously described. Cell measurements for a single field of view were sequentially obtained for 3 minutes prior to treatment with CCCP. HeLa (n=31 from 6 independent experiments) and CHO (n=159 from 5 independent experiments) cells were treated with 10 μM for 15 minutes and imaged before and after treatment. Mock treated cells were incubated with 0.01% DMSO to account for the effect of DMSO solvent on the cells. […] Mitochondrial membrane potential ΔΨm was measured by flow cytometry (BD LSRII at the Northwestern Flow Cytometry Core) for tetramethylrhodamine (TMRE, purchased from Life Technologies, Carlsbad Calif.) stained cells. In brief, cells were trypsinized and immediately stained with 50 nM of TMRE for 30 minutes. Cells were washed twice with PBS after staining and suspended in 1 ml of PBS. CCCP treated cells were treated for 15 minutes to replicate conditions during live cell live cell PWS imaging. At least 20,000 cells were selected by forward and side scattering channels for each group, with a double elimination of doublets from the final analysis. Mean TMRE intensity from each replicate population was used for representative comparison between treated and untreated groups.

CHO cells [5] = assay: Live cell PWS, mean nuclear Σ (chromatin nano-architecture); format: cell-based, Chinese Ovarian Hamster
Procedure: as §1

HeLa cells [6] = assay: Mitochondrial membrane potential by TMRE flow cytometry; format: cell-based; settings: 10 μM CCCP
Procedure: as §2

A2780.m248 = assay: Cell survival by surface coverage (% inhibition / cell death); format: cell-based; settings: for % Inhibition: Ovarian A2780.m248, after 48 hours, surface coverage relative to control
Procedure: These compounds were tested in combination with the chemotherapy drug paclitaxel.

A2780 = assay: as above; settings: Ovarian A2780; after 48 hours, surface coverage relative to control
[7] = tested on: A2780.m248 ovarian cancer cells; assay: Live cell PWS screen for CPT activity (mean nuclear sigma); format: cell-based; settings: 30-60 minute treated cells
cancer cell lines [8] = assay: Single-cell sequencing of transcriptional heterogeneity; format: cell-based
Source text: Although partial regulation of folding is achieved through molecular-specific chromatin remodelers (Refs. 12c, 40c; incorporated by reference in their entireties) (CTCF, SWI/SNF, histone modifications), a more efficient global regulation is governed by physico-chemical mechanisms (FIG. 16). A cardiovascular drug digoxin provides one such example.

MES-SA MX2 = assay: Cell survival by surface coverage (% inhibition); format: cell-based; settings: Sarcoma MES-SA MX2
MES-SA = assay: Cell survival by surface coverage (% inhibition); format: cell-based; settings: Sarcoma MES-SA
HeLa cells [9] = assay: γ-H2A.X immunofluorescence (DNA fragmentation); format: cell-based; settings: Hoechst-stained cells after UV excitation versus mock-stained
Procedure: Co-registration of live cell PWS imaging and DNA strand damage using phospho-histone H2A.X was performed by immunofluorescent staining on three independent experiments. Cells were fixed for 20 min with 4% paraformaldehyde at room temperature, washed twice with phosphate buffered saline and a permeabilization/blocking step was performed with 0.1% Triton X-100 in 1% bovine serum albumin (Sigma Aldrich, St. Louis Mo.) for 20 min. Cells were again washed twice with PBS and then incubated with AlexaFluor 488 conjugated to anti-γH2A.X (serine 139 residue) rabbit monoclonal antibody (Cell Signaling, Beverly, […].) for 30 minutes. Following incubation with the antibody, cells were imaged using the FITC-EGFP filter on the live cell PWS microscope.

A2780 cells = assay: LC-PWS microscopy quantification of chromatin heterogeneity; format: cell-based; settings: 5 nM for 24 hours
MDA-MB-231 = assay: Cell survival by surface coverage (% inhibition); settings: Breast MDA-MB-231

In the case of Cn1cc(C2=C(c3coc4ccc(F)cc34)C(=O)NC2=O)c2cc3c(cc21)OCO3 [9-ING-41], the “capacity to reduce chromatin folding (D↓, Σ↓)” value (cancer cell lines [1]) is reported as “reduce chromatin folding”, the “Σ / CPT strength in multiple cancer cell lines” value (cancer cell lines [1]; colonic, pancreatic, ovarian, and mesothelioma lines) is reported as “strong CPT; also recorded: decreases Σ” and the tumor size [2] is reported as “continued to expand in size”.

N#CC(C#N)=NNc1cccc(Cl)c1 [CCCP, carbonyl cyanide m-chlorophenyl hydrazone] was tested, and the “decrease in mean-nuclear Σ” value (HeLa cells [3]; 10 μM CCCP, 15 minutes) was 10%, the “change in TMRE fluorescence” value (CHO cells [4]) was “no significant change” and the “regulation of chromatin topology / heterogeneity” value (cancer cell lines [1]) was “potent regulators of chromatin topology; also recorded: global regulators of chromatin heterogeneity”. The “change in mean-nuclear Σ” value (CHO cells [5]; 10 μM CCCP, 15 minutes) was “no significant increase”, the “decrease in TMRE fluorescence” value (HeLa cells [6]) was 10 fold and the “ΔΨm as gauged by TMRE fluorescence” value (HeLa cells [6]) was “rapidly lost ΔΨm”.

For Cc1ccc(-c2cc(C(F)(F)F)nn2-c2ccc(S(N)(=O)=O)cc2)cc1 [Celecoxib], the “% Inhibition” value (A2780.m248) was 0%, the “% Inhibition” value (A2780) was 0% and the “capacity to reduce chromatin folding (D↓, Σ↓)” value (cancer cell lines [1]) was “reduce chromatin folding”. For the same compound, the “regulation of chromatin topology / heterogeneity” value (cancer cell lines [1]) was “homogenization of chromatin; also recorded: potent regulators of chromatin topology; also recorded: global regulators of chromatin heterogeneity”, the “chromatin heterogeneity Σ” value (cancer cell lines [1]) was “Σ↓” and the mean nuclear sigma [7] was “decrease in mean nuclear sigma”.

COc1cc(/C=C/C(=O)CC(=O)/C=C/c2ccc(O)c(OC)c2)ccc1O [Curcumin] was tested, and the “capacity to reduce chromatin folding (D↓, Σ↓)” value (cancer cell lines [1]) was “reduce chromatin folding”.

C[C@H]1O[C@@H](O[C@H]2[C@@H](O)C[C@H](O[C@H]3[C@@H](O)C[C@H](O[C@H]4CC[C@@]5(C)[C@H](CC[C@@H]6[C@@H]5C[C@@H](O)[C@]5(C)[C@@H](C7=CC(=O)OC7)CC[C@]65O)C4)O[C@@H]3C)O[C@@H]2C)C[C@H](O)[C@@H]1O [Digoxin, digoxin] was tested, and the “capacity to reduce chromatin folding (D↓, Σ↓)” value (cancer cell lines [1]) was “reduce chromatin folding”, the “chromatin D” value (cancer cell lines [1]; cell culture, within 30 min after application) was “D↓” and the “structural alteration of chromatin folding” value (cancer cell lines [1]) was “decreases chromatin folding”. For the same compound, the “regulation of chromatin topology / heterogeneity” value (cancer cell lines [1]) was “homogenization of chromatin; also recorded: potent regulators of chromatin topology; also recorded: global regulators of chromatin heterogeneity”, the “chromatin heterogeneity Σ” value (cancer cell lines [1]) was “Σ↓” and the “transcriptional divergence and heterogeneity” value (cancer cell lines [8]) was “lower intracellular transcriptional divergence and intercellular heterogeneity”. The mean nuclear sigma [7] was “decrease in mean nuclear sigma”.

With CC(=O)O[C@@]12CO[C@@H]1C[C@H](O)[C@@]1(C)C(=O)[C@H](O)C3=C(C)[C@@H](OC(=O)[C@H](O)[C@@H](NC(=O)OC(C)(C)C)c4ccccc4)C[C@@](O)([C@@H](OC(=O)c4ccccc4)[C@H]21)C3(C)C [Docetaxel] the “% Inhibition” value (MES-SA MX2) was 79%, the “structural alteration of chromatin folding” value (cancer cell lines [1]) was “increases” and the “% Inhibition” value (MES-SA) was 65%.

For O=C(O[C@@H]1Cc2c(O)cc(O)cc2O[C@@H]1c1cc(O)c(O)c(O)c1)c1cc(O)c(O)c(O)c1 [EGCG], the “capacity to reduce chromatin folding (D↓, Σ↓)” value (cancer cell lines [1]) was “reduce chromatin folding”.

In the case of CCOc1ccc(-c2nc3ccc(-c4nc5ccc(N6CCN(C)CC6)cc5[nH]4)cc3[nH]2)cc1 [Hoechst 33342], the “decrease in mean-nuclear Σ” value (HeLa cells [3]; Hoechst-stained, after a few seconds of UV exposure (excitation)) is reported as 17.01%, the γ-H2A.X antibody accumulation (HeLa cells [9]) is reported as “drastic accumulation” and the “change (decrease) in mean-nuclear Σ” value (CHO cells [5]; Hoechst-stained, after UV exposure (excitation)) is reported as −7.1%.

For CC(=O)O[C@H]1C(=O)[C@@]2(C)[C@H]([C@H](OC(=O)c3ccccc3)[C@]3(O)C[C@H](OC(=O)[C@H](O)[C@@H](NC(=O)c4ccccc4)c4ccccc4)C(C)=C1C3(C)C)[C@]1(OC(C)=O)CO[C@@H]1C[C@@H]2O [Paclitaxel], the “Surface coverage relative to control (% survival)” value (A2780.m248; A2780.m248) was 43%, the “% Inhibition” value (A2780.m248) was 57% and the “chromatin heterogeneity after treatment” value (A2780 cells) was “increase in chromatin heterogeneity”. The “% Inhibition” value (A2780) was 21%, the “structural alteration of chromatin folding” value (cancer cell lines [1]) was “increases” and the “% Inhibition” value (MDA-MB-231) was 50%.

For CC(=O)Oc1ccccc1C(=O)O [aspirin], the “capacity to reduce chromatin folding (D↓, Σ↓)” value (cancer cell lines [1]) was “reduce chromatin folding” and the “regulation of chromatin topology / heterogeneity” value (cancer cell lines [1]) was “potent regulators of chromatin topology; also recorded: global regulators of chromatin heterogeneity”.

For Nc1ccn([C@@H]2O[C@H](CO)[C@@H](O)C2(F)F)c(=O)n1 [gemcitabine], the tumor size [2] was “continued to expand in size”.

With CC1=C(CC(=O)O)c2cc(F)ccc2/C1=C\c1ccc([S+](C)[O-])cc1 (stereo not shown) [sulindac] the “chromatin heterogeneity Σ” value (cancer cell lines [1]) was “not”.

CC(C)[C@@H]1NC(=O)[C@H](C)OC(=O)[C@@H](C(C)C)NC(=O)[C@@H](C(C)C)OC(=O)[C@H](C(C)C)NC(=O)[C@H](C)OC(=O)[C@@H](C(C)C)NC(=O)[C@@H](C(C)C)OC(=O)[C@H](C(C)C)NC(=O)[C@H](C)OC(=O)[C@@H](C(C)C)NC(=O)[C@@H](C(C)C)OC1=O [valinomycin] was tested, and the “capacity to reduce chromatin folding (D↓, Σ↓)” value (cancer cell lines [1]) was “reduce chromatin folding” and the “regulation of chromatin topology / heterogeneity” value (cancer cell lines [1]) was “potent regulators of chromatin topology; also recorded: global regulators of chromatin heterogeneity”.

For CCCC(CCC)C(=O)O [valproic acid], the “chromatin heterogeneity Σ” value (cancer cell lines [1]) was “Σ↓”.

Source: US20200217837A1, “CHROMATIN PROTECTIVE THERAPEUTICS AND CHROMATIN HETEROGENEITY” (Northwestern University, priority 2016, published 2020)
